# Data: patent publication US5614526A, “Use of phenoxy-piperzine derivatives” (Hoffmann-La Roche Inc., priority 1995, dated 1997)
# Target: T1, dopamine-D4 receptor (Homo sapiens, UniProt P21917)
# T1 construct: expressed in transfected cells; host or cells: CHO (Chinese Hamster Ovary) cells, D4-CHO; crude membranes
# T1 sequence (P21917 1-419): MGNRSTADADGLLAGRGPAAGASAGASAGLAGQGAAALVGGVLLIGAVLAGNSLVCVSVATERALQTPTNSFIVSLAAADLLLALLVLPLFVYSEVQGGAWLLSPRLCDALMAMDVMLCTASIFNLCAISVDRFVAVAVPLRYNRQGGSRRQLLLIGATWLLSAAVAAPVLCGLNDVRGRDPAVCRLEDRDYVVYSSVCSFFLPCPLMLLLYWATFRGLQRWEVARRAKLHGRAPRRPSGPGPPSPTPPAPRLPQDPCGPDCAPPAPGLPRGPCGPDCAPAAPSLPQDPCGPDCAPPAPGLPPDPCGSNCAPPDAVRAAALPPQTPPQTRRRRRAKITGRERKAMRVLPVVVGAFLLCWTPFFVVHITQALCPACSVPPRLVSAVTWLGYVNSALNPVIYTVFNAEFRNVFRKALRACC
# Assay: Binding at the D4 receptor, [3H]spiperone displacement, membranes of D4-CHO cells
# Details: Table 1, 200 pM [3H]spiperone, room temperature, 90 minutes
# Procedure: Compounds of formula I were characterized by their binding behavior at the D4 receptor. CHO cells (Chinese Hamster Ovary) were used in the test. Crude membranes were isolated by ultracentrifugation from D4 -CHO and D2 -CHO cells and were stored at -80° C. After thawing and homogenizing in a buffer solution (50mM Tris, 1 mM EDTA, 5 mM KCl, 1.5 mM CaCl2, 4 mM MgCl2, pH 7.4) they were incubated at room temperature for 90 minutes with 200 pM [^3 H] spiperone and an increasing concentration (1×10^-11 M to 1×10^-4 M) of test compound. A non-specific binding was established by incubating in the presence of 1×10^-5 M (+)-butaclamol. The unbound radioligand was removed by filtration through a GF/C glass filter and the bound radioactivity was determined by scintillation in a Packard TopCount. […] The calculation of the value was effected with ligand.
row,Structure (SMILES),Ki
1,"COc1ccccc1N1CCN(CC(O)COc2ccccc2NC(N)=O)CC1 (stereo not drawn) [Compound 18, [2-[2-Hydroxy-3-[4-(2-methoxy-phenyl)-piperazin-1-yl]propoxy]-phenyl]-urea]",< 100 nM
2,"OC(COc1ccccc1)CN1CCN(c2ccccc2)CC1 (stereo not drawn) [Compound 1, 1-Phenoxy-3-(4-phenyl-piperazin-1-yl)-propan-2-ol]",< 100 nM
3,"COc1ccccc1N1CCN(CC(O)COc2ccccc2NC(C)=O)CC1 (single isomer, unassigned) [11(+), [+]-N-[2-[2-Hydroxy-3-[4-(2-methoxy-phenyl)-piperazin-1-yl]-propoxy]phenyl]-acetamide]",< 100 nM
4,"COc1ccccc1N1CCN(CC(O)COc2ccccc2NC(=O)c2ccco2)CC1 (stereo not drawn) [Compound 17, Furan-2-carboxylic acid [2-[2hydroxy-3-[4-(2-methoxy-phenyl)piperazin-1-yl]-propoxy]-phenyl]-amide]",< 100 nM
5,"CCC(=O)Nc1ccccc1OCC(O)CN1CCN(c2ccccc2OC)CC1 (stereo not drawn) [Compound 13, N-[2-[2-Hydroxy-3-[4-(2-methoxy-phenyl)-piperazin-1-yl]-propoxy]-phenyl]propionamide]",< 100 nM
6,"CC(=O)c1ccccc1OCC(O)CN1CCN(c2ccccc2)CC1 (stereo not drawn) [Compound 3, 1-[2-[2-Hydroxy-3-(4-phenyl-piperazin-1-yl)-propoxy]-phenyl]-ethanone]",< 100 nM
7,"COc1ccccc1N1CCN(CC(O)COc2ccccc2NC(C)=O)CC1 (single isomer, unassigned) [12(-), [-]-N-[2-[2-Hydroxy-3-[4-(2-methoxy-phenyl)-piperazin-1-yl]-propoxy]phenyl]-acetamide]",< 100 nM
8,"CC(=O)Nc1ccccc1OCC(O)CN1CCN(c2ccccc2C)CC1 (stereo not drawn) [Compound 6, N-[2-[2-Hydroxy-3-(4-o-tolyl-piperazin-1-yl)-propoxy]-phenly]-acetamide]",< 100 nM
9,"COc1ccccc1N1CCN(CC(O)COc2cc(C)ccc2NC(C)=O)CC1 (stereo not drawn) [Compound 20, N-[2-[2-Hydroxy-3-[4-(2-methoxy-phenyl)-piperazin-1-yl]-propoxy]-4-methyl-phenyl]-acetamide]",< 100 nM
10,"CCOc1ccccc1N1CCN(CC(O)COc2ccccc2NC(=O)CC)CC1 (stereo not drawn) [Compound 21, N-[2-[3-[4-(2-Ethoxy-phenyl)-piperazin-1-yl]-2-hydroxy-propoxy]-phenyl]propionamide]",< 100 nM
11,"COc1ccccc1N1CCN(CC(COc2ccccc2NC(C)=O)OC(C)=O)CC1 (single isomer, unassigned) [31(+), Ethyl [+]-2-(2-acetylamino-phenoxy)-1-[4-(2-methoxy-phenyl)-piperazin-1-ylmethyl]acetate]",< 100 nM
12,"Nc1ccccc1OCC(O)CN1CCN(c2ccccc2)CC1 (stereo not drawn) [Compound 2, 1-(2-Amino-phenoxy)-3-(4-phenyl-piperazin-1-yl)-propan-2-ol]",< 100 nM
13,"Nc1ccccc1OCC(O)CN1CCN(c2ccccc2[N+](=O)[O-])CC1 (stereo not drawn) [Compound 22, 1-(2-Amino-phenoxy)-3-[4-(2-nitro-phenyl)-piperazin-1-yl]-propan-2-ol]",< 100 nM
14,"CCCCCC(=O)Nc1ccccc1OCC(O)CN1CCN(c2ccccc2OC)CC1 (stereo not drawn) [Compound 14, Hexanoic acid [2-[2-hydroxy-3-[4-(2-methoxy-phenyl)-piperazin-1-yl]propoxy]-phenyl]-amide]",< 100 nM
15,"CC(=O)Nc1ccccc1OCC(O)CN1CCN(c2ccccc2C(F)(F)F)CC1 (stereo not drawn) [Compound 7, N-[2-[2-Hydroxy-3-[4-(2-trifluoromethyl-phenyl)-piperazin-1yl]-propoxy]phenyl]-acetamide]",< 100 nM
16,"COc1ccccc1N1CCN(CC(O)COc2ccc(C)cc2NC(C)=O)CC1 (stereo not drawn) [Compound 19, N-[2-[2-Hydroxy-3-[4-(2-methoxy-phenyl)-piperazin-1-yl]-proxpoxy]-5-methyl-phenyl]-acetamide]",< 100 nM
17,"OC(COc1cccc(C(F)(F)F)c1)CN1CCN(c2ccc(Cl)cc2)CC1 (stereo not drawn) [Compound 5, 1-[4-(4-Chloro-phenyl)-piperazin-1-yl]-3-(3-trifluoro-methyl-phenoxy)-propan-2-ol]",< 100 nM
18,"COc1ccccc1N1CCN(CC(O)COc2ccccc2NC(=O)C(C)(C)C)CC1 (stereo not drawn) [Compound 15, N-[2-[2-Hydroxy-3-[4-(2-methoxy-phenyl)-piperazin-1-yl]-propoxy]-phenyl]-2,2-dimethyl-propionamide]",< 100 nM
19,"COc1ccccc1N1CCN(CC(O)COc2ccccc2N)CC1 (single isomer, unassigned) [9(+), [+]-1-(2-Amino-phenoxy)-3-[4(2-methoxy-phenyl)-piperazin-1-yl]-propan-2-ol]",< 100 nM
20,"COc1ccccc1N1CCN(CC(COc2ccccc2NC(C)=O)OC(C)=O)CC1 (stereo not drawn) [Compound 30, Ethyl 2-(2-acetylamino-phenoxy)-1-[4-(2-methoxy-phenyl)-piperazin-1-ylmethyl]-acetate]",< 100 nM
21,"CC(=O)Nc1ccccc1OCC(O)CN1CCN(c2ccccc2O)CC1 (stereo not drawn) [Compound 8, N-[2-[2-Hydroxy-3-[4-(2-hydroxy-phenyl)-piperazin-1-yl]-propoxy]-phenyl]-acetamide]",< 100 nM
22,"NC(=O)c1ccccc1OCC(O)CN1CCN(c2ccccc2)CC1 (stereo not drawn) [Compound 4, 2-[2-Hydroxy-3-(4-phenyl-piperazin-1-yl)-propoxy]-benzamide]",< 100 nM
23,"COc1ccccc1N1CCN(CC(O)COc2ccccc2NC(C)=O)CC1 (racemic) [10(rac), N-[2-[2-Hydroxy-3-[4-(2-methoxy-phenyl)-piperazin-1-yl]-propoxy]-phenyl]-acetamide]",< 100 nM
24,"C/C=C/C(=O)Nc1ccccc1OCC(O)CN1CCN(c2ccccc2OC)CC1 (single isomer, unassigned) [Compound 16, [+]-(E)-But-2-enolic acid [2-[2-hydroxy-3-[4-(2-methoxy-phenyl)-piperazin-1-yl]-propoxy]-phenyl]-amide]",< 100 nM

# Same assay, conditions: Table 2, 200 pM [3H]spiperone, room temperature, 90 minutes
row,Structure (SMILES),Ki
1,COc1ccccc1N1CCN(CC(O)COc2ccc([N+](=O)[O-])cc2NC(C)=O)CC1 (stereo not drawn) [Compound 27],15 nM
2,COc1cc(O)ccc1N1CCN(CC(O)COc2ccccc2NC(C)=O)CC1 (stereo not drawn) [Compound 25],10.2 nM
3,Cc1cccc(OCC(O)CN2CCN(c3ccccc3)CC2)c1 (stereo not drawn) [Compound 23],9.6 nM
4,CC(=O)Nc1ccccc1OCC(O)CN1CCN(c2ccccc2[N+](=O)[O-])CC1 (stereo not drawn) [Compound 29],8.7 nM
5,COc1ccccc1N1CCN(CC(O)COc2ccccc2NS(C)(=O)=O)CC1 (stereo not drawn) [Compound 26],3.2 nM
6,CCC(=O)Nc1ccccc1OCC(O)CN1CCN(c2ccccc2)CC1 (stereo not drawn) [Compound 24],29 nM

# Tested on: D2 receptor
# Assay: Binding at the D2 receptor, [3H]spiperone displacement, membranes of D2-CHO cells (selectivity vs. D4)
# Details: ratio of the Ki values at the D2 receptor and at the D4 receptor
# Procedure: CHO cells (Chinese Hamster Ovary) were used in the test. Crude membranes were isolated by ultracentrifugation from D4 -CHO and D2 -CHO cells and were stored at -80° C. After thawing and homogenizing in a buffer solution (50mM Tris, 1 mM EDTA, 5 mM KCl, 1.5 mM CaCl2, 4 mM MgCl2, pH 7.4) they were incubated at room temperature for 90 minutes with 200 pM [^3 H] spiperone and an increasing concentration (1×10^-11 M to 1×10^-4 M) of test compound. A non-specific binding was established by incubating in the presence of 1×10^-5 M (+)-butaclamol. The unbound radioligand was removed by filtration through a GF/C glass filter and the bound radioactivity was determined by scintillation in a Packard TopCount.
# Compounds of formula I were compared with respect to their D2 receptor activity.
row,Structure (SMILES),Sel. vs. D2
1,COc1ccccc1N1CCN(CC(O)COc2ccc([N+](=O)[O-])cc2NC(C)=O)CC1 (stereo not drawn) [Compound 27],112
2,COc1cc(O)ccc1N1CCN(CC(O)COc2ccccc2NC(C)=O)CC1 (stereo not drawn) [Compound 25],1370
3,Cc1cccc(OCC(O)CN2CCN(c3ccccc3)CC2)c1 (stereo not drawn) [Compound 23],300
4,CC(=O)Nc1ccccc1OCC(O)CN1CCN(c2ccccc2[N+](=O)[O-])CC1 (stereo not drawn) [Compound 29],360
5,COc1ccccc1N1CCN(CC(O)COc2ccccc2NS(C)(=O)=O)CC1 (stereo not drawn) [Compound 26],177
6,CCC(=O)Nc1ccccc1OCC(O)CN1CCN(c2ccccc2)CC1 (stereo not drawn) [Compound 24],233
